Patent US20200369728A1, “PEPTIDOMIMETIC MACROCYCLES AND USES THEREOF” (Aileron Therapeutics, Inc., priority 2015, published 2020)
Bridge positions count the residues as written; N and C are the ends. Square brackets hold non-standard residues; d marks the D form. Peptide text beside a SMILES is read from it. Phe(4-COOH) = N[C@@H](Cc1ccc(C(=O)O)cc1)C(=O)O; Phe(3,4-F2) = N[C@@H](Cc1ccc(F)c(F)c1)C(=O)O; 2Nal = N[C@@H](Cc1ccc2ccccc2c1)C(=O)O; R8 = C=CCCCCCC[C@@](C)(N)C(=O)O; Cba = N[C@@H](CC1CCC1)C(=O)O; S5 = C=CCCC[C@](C)(N)C(=O)O; Nle = CCCC[C@H](N)C(=O)O

How the values were obtained:
RKO = assay: Cell viability assay (MTT), RKO; conditions: read-out: RKO EC50 (72 h)
Caspase 3 = Caspase 3 detection assay in SJSA1 cells; assay type: cell-based; conditions: SJSA1, 48 h, Caspase 3 activation over DMSO-treated cells
SJSA-1 cells = assay: Cell lysis by peptidomimetic macrocycles (LDH release); assay type: cell-based; conditions: SJSA-1, 1 h
How it was run: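 SJSA-1 cells plated the day before, switched to RPMI with 1% FBS, then exposed 1 h at 37 °C to macrocycle at final 50 μM to 6.25 μM in 0.5% DMSO. LDH released into the supernatant was measured by kit. Controls: 0.5% DMSO (non-lytic), 10 μM melittin and 1% Triton X-100 (lytic).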

Row | Compound | EC50 (RKO) [µM] | caspase 0.3 μM (Caspase 3) | caspase 3 μM (Caspase 3) | caspase 10 μM (Caspase 3) | caspase 30 μM (Caspase 3) | 6.25 μM % Lysed cells (1 h LDH) (SJSA-1 cells) [%] | 25 μM % Lysed cells (1 h LDH) (SJSA-1 cells) [%] | 50 μM % Lysed cells (1 h LDH) (SJSA-1 cells) [%] | caspase 1 μM (Caspase 3; 1 μM)
1 | CCCC[C@H](NC(=O)[C@H](C)NC(=O)[C@H](C)NC(=O)[C@]1(C)CCCC=CCCCCCC[C@@](C)(NC(=O)[C@H](Cc2ccccc2)NC(=O)[C@@H](NC(=O)[C@H](CC(C)C)NC(C)=O)[C@@H](C)O)C(=O)N[C@@H](C)C(=O)N[C@@H](Cc2ccc(O)cc2)C(=O)N(C)[C@@H](Cc2c[nH]c3ccccc23)C(=O)N[C@@H](C)C(=O)N[C@@H](CCC(N)=O)C(=O)N[C@@H](CC(C)C)C(=O)N1)C(=O)N[C@@H](C)C(N)=O (single isomer, unassigned) [compound 386] | < 5 | – | – | – | – | – | – | – | –
2 | CCCC[C@H](NC(=O)[C@H](C)NC(=O)[C@H](C)NC(=O)[C@]1(C)CCCC=CCCCCCC[C@@](C)(NC(=O)[C@H](Cc2ccccc2)NC(=O)[C@@H](NC(=O)[C@H](CC(C)C)NC(C)=O)[C@@H](C)O)C(=O)N[C@@H](C)C(=O)N[C@@H](Cc2ccc(O)cc2)C(=O)N[C@@H](Cc2c[nH]c3ccccc23)C(=O)NC(C)(C)C(=O)N[C@@H](CCC(N)=O)C(=O)N[C@@H](CC(C)C)C(=O)N1)C(=O)N[C@@H](C)C(N)=O (single isomer, unassigned) [compound 390] | < 5 | – | – | – | – | – | – | – | –
3 | CC(C)C[C@H](NC(=O)CN(C)C)C(=O)N[C@H](C(=O)N[C@@H](Cc1ccccc1)C(=O)N[C@]1(C)CCCCCCC=CCCC[C@@](C)(C(=O)N[C@@H](C)C(=O)N[C@@H](C)C(=O)N[C@@H](C)C(=O)N[C@@H](C)C(=O)N[C@@H](C)C(=O)N[C@H](C)C(N)=O)NC(=O)[C@H](CC(C)C)NC(=O)[C@H](CCC(N)=O)NC(=O)[C@H](C)NC(=O)[C@H](Cc2c[nH]c3ccccc23)NC(=O)[C@H](Cc2ccc(O)cc2)NC(=O)[C@H](C)NC1=O)[C@@H](C)O (single isomer, unassigned) [compound 436] | < 5 | – | – | – | – | – | – | – | –
4 | CC[C@H](C)[C@H](NC(=O)[C@H](C)NC(=O)[C@H](C)NC(=O)[C@]1(C)CCCC=CCCCCCC[C@@](C)(NC(=O)[C@H](Cc2ccccc2)NC(=O)[C@@H](NC(=O)[C@H](CC(C)C)NC(=O)CN(C)C)[C@@H](C)O)C(=O)N[C@@H](CCC(=O)O)C(=O)N[C@@H](Cc2ccc(C(=O)O)cc2)C(=O)N[C@@H](Cc2c[nH]c3ccccc23)C(=O)N[C@@H](C)C(=O)N[C@@H](CCC(N)=O)C(=O)N[C@@H](CC2CCC2)C(=O)N1)C(=O)N[C@H](C)C(N)=O (single isomer, unassigned) [compound 440] | 15 to 30 | – | – | – | – | – | – | – | –
5 | CCCC[C@H](NC(=O)[C@H](C)NC(=O)[C@H](C)NC(=O)[C@]1(C)CCCC=CCCCCCC[C@@](C)(NC(=O)[C@H](Cc2ccccc2)NC(=O)[C@@H](NC(=O)[C@H](CCC(=O)O)NC(C)=O)[C@@H](C)O)C(=O)N[C@@H](C)C(=O)N[C@@H](Cc2ccc(O)cc2)C(=O)N[C@@H](Cc2c[nH]c3ccccc23)C(=O)N[C@@H](C)C(=O)N[C@@H](CCC(N)=O)C(=O)N[C@@H](CC2CCC2)C(=O)N1)C(=O)N[C@@H](C)C(N)=O [compound 237] (Ac-ETF[R8]AYWAQ[Cba][S5]AA[Nle]A-NH2; staple 4-11) | – | 1 | 5 | 9 | 15 | 0 | 7 | 55 | –
6 | CCCC[C@H](NC(=O)[C@H](C)NC(=O)[C@H](CO)NC(=O)[C@]1(C)CCCC=CCCCCCC[C@@](C)(NC(=O)[C@H](Cc2ccc(F)c(F)c2)NC(=O)[C@@H](NC(=O)[C@H](CC(C)C)NC(C)=O)[C@@H](C)O)C(=O)N[C@@H](CCC(=O)O)C(=O)N[C@@H](Cc2ccc(O)cc2)C(=O)N[C@@H](Cc2c[nH]c3ccccc23)C(=O)N[C@@H](C)C(=O)N[C@@H](CCC(N)=O)C(=O)N[C@@H](CC2CCC2)C(=O)N1)C(=O)N[C@@H](C)C(N)=O [compound 243] (Ac-LT[Phe(3,4-F2)][R8]EYWAQ[Cba][S5]SA[Nle]A-NH2; staple 4-11) | – | 1 | 2 | 5 | 23 | 4 | 39 | 64 | –
7 | CCCC[C@H](NC(=O)[C@H](C)NC(=O)[C@H](CO)NC(=O)[C@]1(C)CCCC=CCCCCCC[C@@](C)(NC(=O)[C@H](Cc2ccccc2)NC(=O)[C@@H](NC(=O)[C@H](CC(C)C)NC(C)=O)[C@@H](C)O)C(=O)N[C@@H](CCC(=O)O)C(=O)N[C@@H](Cc2ccc(C(=O)O)cc2)C(=O)N[C@@H](Cc2c[nH]c3ccccc23)C(=O)N[C@@H](C)C(=O)N[C@@H](CCC(N)=O)C(=O)N[C@@H](CC2CCC2)C(=O)N1)C(=O)N[C@@H](C)C(N)=O [compound 244] (Ac-LTF[R8]E[Phe(4-COOH)]WAQ[Cba][S5]SA[Nle]A-NH2; staple 4-11) | – | 1 | 2 | 7 | 17 | 0 | 0 | 4 | –
8 | CCCC[C@H](NC(=O)[C@H](C)NC(=O)[C@H](CO)NC(=O)[C@]1(C)CCCC=CCCCCCC[C@@](C)(NC(=O)[C@H](Cc2ccccc2)NC(=O)[C@@H](NC(=O)[C@H](CC(C)C)NC(C)=O)[C@@H](C)O)C(=O)N[C@@H](CCC(=O)O)C(=O)N[C@@H](Cc2ccc(O)cc2)C(=O)N[C@@H](Cc2c[nH]c3ccccc23)C(=O)N[C@@H](CO)C(=O)N[C@@H](CCC(N)=O)C(=O)N[C@@H](CC2CCC2)C(=O)N1)C(=O)N[C@@H](C)C(N)=O [compound 245] (Ac-LTF[R8]EYWSQ[Cba][S5]SA[Nle]A-NH2; staple 4-11) | – | 1 | 3 | 9 | 16 | 1 | 11 | 56 | –
9 | CC[C@H](C)[C@H](NC(=O)[C@H](C)NC(=O)[C@H](C)NC(=O)[C@]1(C)CCCC=CCCCCCC[C@@](C)(NC(=O)[C@H](Cc2ccccc2)NC(=O)[C@@H](NC(=O)[C@H](CC(C)C)NC(C)=O)[C@@H](C)O)C(=O)N[C@@H](CCC(=O)O)C(=O)N[C@@H](Cc2ccc(O)cc2)C(=O)N[C@@H](Cc2c[nH]c3ccccc23)C(=O)N[C@@H](C)C(=O)N[C@@H](CCC(N)=O)C(=O)N[C@@H](CC2CCC2)C(=O)N1)C(=O)N[C@H](C)C(N)=O [compound 247] (Ac-LTF[R8]EYWAQ[Cba][S5]AAI[dA]-NH2; staple 4-11) | – | 1 | 3 | 11 | 24 | 0 | 0 | 4 | –
10 | CC(=O)N[C@@H](CC(C)C)C(=O)N[C@H](C(=O)N[C@@H](Cc1ccccc1)C(=O)N[C@]1(C)CCCCCCC=CCCC[C@@](C)(C(=O)N[C@@H](CO)C(=O)N[C@@H](C)C(=O)N[C@@H](C)C(N)=O)NC(=O)[C@H](CC2CCC2)NC(=O)[C@H](CCC(N)=O)NC(=O)[C@H](C)NC(=O)[C@H](Cc2ccc3ccccc3c2)NC(=O)[C@H](Cc2ccc(O)cc2)NC(=O)[C@H](CCC(=O)O)NC1=O)[C@@H](C)O [compound 254] (Ac-LTF[R8]EY[2Nal]AQ[Cba][S5]SAA-NH2; staple 4-11) | – | 1 | 7 | 14 | 22 | 11 | 60 | 75 | 3
